Source: the supplement of paper PMC10307832

Tests used:
Assay in all cases: relative viability (nuclei count vs DMSO), 5 days (fraction); higher = more cells survive
[1] = compound: COc1ccc(-c2ccc3c(N4CCOC[C@@H]4C)nc(N4CCOC[C@@H]4C)nc3n2)cc1CO [AZD8055] + Cc1nc(NC(=O)N2CCC[C@H]2C(N)=O)sc1-c1ccnc(C(C)(C)C(F)(F)F)c1 [Alpelisib] (partner 2 µM)
Procedure, shortened: (§1)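 Each reported value is a median over duplicate plates. It expresses relative viability: treated-well nuclei count divided by vehicle-well nuclei count. Lung cancer cell lines in 1536-well plates were dosed by pin tool a day after seeding, alone with one drug or with a fixed anchor-drug dose plus five library-drug doses (not always all listed) in √10 steps, and nuclei were counted after 5 days.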

[2] = compound: COc1ccc(-c2ccc3c(N4CCOC[C@@H]4C)nc(N4CCOC[C@@H]4C)nc3n2)cc1CO [AZD8055] + CCNC(=O)c1noc(-c2cc(C(C)C)c(O)cc2O)c1-c1ccc(CN2CCOCC2)cc1 [Luminespib] (partner 0.01 µM)
Procedure, shortened: as §1

[3] = compound: COc1ccc(-c2ccc3c(N4CCOC[C@@H]4C)nc(N4CCOC[C@@H]4C)nc3n2)cc1CO [AZD8055] + Cc1cc(Nc2cc(N3CCN(C)CC3)nc(Sc3ccc(NC(=O)C4CC4)cc3)n2)n[nH]1 [Tozasertib] (partner 0.1 µM)
Procedure, shortened: as §1

[4] = compound: COc1ccc(-c2ccc3c(N4CCOC[C@@H]4C)nc(N4CCOC[C@@H]4C)nc3n2)cc1CO [AZD8055] + Cc1nc(Nc2ncc(C(=O)Nc3c(C)cccc3Cl)s2)cc(N2CCN(CCO)CC2)n1 [Dasatinib] (partner 0.075 µM)
Procedure, shortened: as §1

Cell Line | relative viability ([1]; first compound 0.01 µM) | relative viability ([1]; first compound 0.03162 µM) | relative viability ([1]; first compound 0.1 µM) | relative viability ([1]; first compound 0.3162 µM) | relative viability ([1]; first compound 1 µM) | relative viability ([2]; first compound 0.01 µM) | relative viability ([2]; first compound 0.03162 µM) | relative viability ([2]; first compound 0.1 µM) | relative viability ([2]; first compound 0.3162 µM) | relative viability ([2]; first compound 1 µM) | relative viability ([3]; first compound 0.01 µM) | relative viability ([3]; first compound 0.03162 µM) | relative viability ([3]; first compound 0.1 µM) | relative viability ([3]; first compound 0.3162 µM) | relative viability ([3]; first compound 1 µM) | relative viability ([4]; first compound 0.01 µM) | relative viability ([4]; first compound 0.03162 µM) | relative viability ([4]; first compound 0.1 µM) | relative viability ([4]; first compound 0.3162 µM) | relative viability ([4]; first compound 1 µM)
201T | 0.987 | 0.911 | 0.775 | 0.611 | 0.569 | 0.979 | 1.01 | 0.814 | 0.421 | 0.42 | 0.98 | 0.895 | 0.813 | 0.529 | 0.595 | 0.537 | 0.564 | 0.501 | 0.398 | 0.416
A-427 | 1.22 | 0.999 | 0.939 | 0.674 | 0.519 | 1.3 | 0.832 | 0.817 | 0.482 | 0.581 | 0.204 | 0.193 | 0.22 | 0.163 | 0.208 | 0.666 | 0.632 | 0.572 | 0.281 | 0.339
ABC-1 | 0.897 | 0.847 | 0.65 | 0.404 | 0.515 | 0.434 | 0.521 | 0.289 | 0.331 | 0.284 | 0.186 | 0.187 | 0.174 | 0.196 | 0.19 | 0.692 | 0.548 | 0.526 | 0.219 | 0.3
BEN | 1.06 | 0.593 | 0.391 | 0.341 | 0.338 | 0.242 | 0.179 | 0.305 | 0.216 | 0.192 | 0.563 | 0.48 | 0.492 | 0.471 | 0.345 | 0.273 | 0.246 | 0.205 | 0.237 | 0.171
CAL-12T | 1.15 | 1.1 | 0.91 | 0.337 | 0.17 | 0.321 | 0.203 | 0.131 | 0.152 | 0.139 | 0.329 | 0.37 | 0.277 | 0.174 | 0.166 | 0.536 | 0.388 | 0.34 | 0.136 | 0.12
COR-L23 | 0.837 | 0.551 | 0.395 | 0.155 | 0.154 | 0.773 | 0.625 | 0.381 | 0.118 | 0.137 | 0.278 | 0.295 | 0.228 | 0.15 | 0.154 | 0.581 | 0.44 | 0.309 | 0.137 | 0.164
COR-L 105 | 0.975 | 0.737 | 0.798 | 0.271 | 0.315 | 0.733 | 0.912 | 0.349 | 0.3 | 0.268 | 0.326 | 0.354 | 0.304 | 0.282 | 0.27 | 0.359 | 0.281 | 0.23 | 0.2 | 0.226
Calu-6 | 0.911 | 0.69 | 0.524 | 0.399 | 0.339 | – | – | – | – | – | – | – | – | – | – | – | – | – | – | –
ChaGo-K-1 | – | – | – | – | – | 0.611 | 0.604 | 0.533 | 0.423 | 0.297 | 0.214 | 0.213 | 0.213 | 0.168 | 0.175 | 0.614 | 0.537 | 0.433 | 0.375 | 0.352
EKVX | 0.94 | 0.834 | 0.587 | 0.34 | 0.401 | 0.949 | 0.866 | 0.655 | 0.355 | 0.248 | 0.451 | 0.418 | 0.345 | 0.226 | 0.202 | 0.443 | 0.615 | 0.419 | 0.317 | 0.263
EMC-BAC-2 | 0.706 | 0.663 | 0.469 | 0.281 | 0.297 | 1.18 | 1.05 | 0.867 | 0.534 | 0.403 | 0.279 | 0.299 | 0.249 | 0.257 | 0.255 | 0.32 | 0.25 | 0.234 | 0.186 | 0.186
EPLC-272H | 0.927 | 0.754 | 0.546 | 0.445 | 0.404 | 0.182 | 0.12 | 0.178 | 0.22 | 0.182 | 0.279 | 0.152 | 0.161 | 0.229 | 0.222 | 0.333 | 0.221 | 0.173 | 0.109 | 0.128
H3255 | 0.683 | 0.657 | 0.499 | 0.275 | 0.322 | 0.879 | 0.804 | 0.845 | 0.382 | 0.381 | 0.574 | 0.716 | 0.535 | 0.604 | 0.359 | 0.364 | 0.429 | 0.3 | 0.323 | 0.306
HARA | 0.786 | 0.744 | 0.376 | 0.222 | 0.252 | 1.44 | 0.584 | 0.393 | 0.112 | 0.12 | 0.103 | 0.162 | 0.0997 | 0.0987 | 0.0859 | 0.282 | 0.294 | 0.221 | 0.155 | 0.221
